Assay results from EP1705169A2, “Triphenylalkene derivatives and their use as selective estrogen receptor modulators” (priority 1999, dated 2001).
Where two headings read alike, the source gives them in different places.

Key:
[1] = system: MCF-7 cells; assay: cells; settings: for inhibition at 1 µM / Emax / cytotoxicity at 10 µM: Homo sapiens, MCF7, 96 h; for inhibition at 1 µM: read-out: Antagonism at 1 µM (% of full antagonism); for Emax: read-out: Maximal Agonism (% of E2); for cytotoxicity at 10 µM: toxicity at 10 µmol/l, 100 = all cells dead
Description: For experiments involving hormone or anti-hormone treatment, the cells in exponential growth phase were precultivated in the absence of estradiol for one day. […] After the incubation period the medium was removed. The exposure to study drugs was started immediately by adding fresh medium with 5 % stripped serum. Half of the cells were grown with estradiol, half without estradiol. Study compounds (dissolved in ethanol in 0.01 M concentration and diluted with the growth medium as appropriate) were added. The final concentrations of the compounds were 1,10, and 100 nM, and 1 and 10 µM. The cells were incubated for four days.
This method allows evaluation of estrogenicity based on the ability of the compounds to stimulate the growth of the estrogen-dependent cells in the absence of estradiol. Estrogenicity was estimated by comparing the maximal growth stimulus (at any concentration) of study compound as per cent from growth stimulus by estradiol (100 % stimulus). […] At high concentrations molecules may also show toxicity. Toxicity was estimated as the fraction of dead cells (i.e. 100 % means that all cells have died during the exposure).

[2] = system: immature female rats; assay: 3 day uterotropic assay in immature female rats (given alone and with estradiol); type: in vivo; settings: 3 days, immature female rats
Description: The values are given at two dose levels, low i.e. 3―5 mg/kg and high i.e. 10―50 mg/kg. Estrogenic activity can be estimated also after a 4 weeks' treatment of ovariectomized rats based on the uterine size.

[3] = system: ovariectomized (OVX) rats; assay: Serum cholesterol level in ovariectomized (OVX) rats after 4 weeks dosing; type: in vivo, rat; settings: for Cholesterol level (mmol/1) in serum: OVX rat, n=8 (Sham 3.8 ± 0.4; OVX 4.6 ± 0.7); for Effect on cholesterol (in words): summary statement referring to Table 4
From the text: (§1) Compounds were given p.o. to female rats for 4 or 5 weeks daily. At the end a blood sample was taken. Serum was separated by centrifugation and frozen until analyzed for total amount of cholesterol. Bone samples were taken from vertebra and tibia. Physical strength of the bones was studied as described by Peng et al, 1994. The assessments of the bone included: • Ash weight of tibial epiphyses • Epiphyses of one tibia was carefully prepared and burned. Samples were burned to remove water and organic material. Ash weight relates to the mineral content of the bone. In addition, bone samples were taken to study the histomorphometry. In some cases the bone formation was studied by injecting tetracycline (50 mg/kg i.p. 10 days before autopsy) and calcein (20 mg/kg i.p. 3 days before autopsy). The method is based on permanent binding of tetracycline into growing bone and its detection by fluorescence (Peng et al, 1994).

[4] = system: ovariectomized rats; settings: 3.0 mg/kg peroral daily, 4 weeks, ovariectomized rats (Sham 0.497 ± 0.103; Ovariectomized 0.099 ± 0.016)
[5] = system: ovariectomized rats; assay: Strength of femoral neck (cantilever bending test) in ovariectomized rats after 4 weeks dosing; type: in vivo; settings: 3.0 mg/kg p.o., beginning one week after ovariectomy (Sham 86.7 ± 10.4; OVX 68.4 ± 8.5), * = p < 0.05 vs ovariectomized
From the text: as §1
The mechanical testing of bones was carried out by materials testing machine, constructed in-house at Oulu University (Technical Services Department of the Medical Faculty). The testing machine is based on lever arm principle. One end of a steel lever is fixed. […] Compressive force is measured by a temperature-compensated force sensor, which is attached to the stationary part of the compression stage. […]
The maximal load on the femoral neck was measured by the cantilever bending test. […]

[6] = system: ovariectomized rats; assay: Ash weight of tibial epiphyses in ovariectomized rats after 4 weeks dosing; type: in vivo; settings: 3.0 mg/kg p.o., beginning one week after ovariectomy (Sham 34.0 ± 2.9; OVX 32.2 ± 2.8), * = p < 0.05 vs ovariectomized
From the text: as §1

[7] = read-out: Maximal Cell Kill (% fraction of dead cells), With estradiol (E2)
[8] = read-out: Maximal Cell Kill (% fraction of dead cells), Without estradiol (E2)
[9] = summary statement referring to Table 2

Compound	inhibition at 1 µM [1] [%]	Emax [1] [%]	cytotoxicity at 10 µM [1, 7] [%]	cytotoxicity at 10 µM [1, 8] [%]	Kill of MCF-7 cells (in words) ([1]; highest investigated concentration (10 µM), Table 2)	Hormonal activity (in words) [1, 9]	Estrogenic and antiestrogenic action (in words) ([1]; summary statement referring to Tables 2, 3 and 4)	Estrogen antagonism (% inhibition of estradiol) Given with estradiol ([2]; dose 3–5 mg/kg)	Uterotropic effect (% of estradiol) Given without estradiol ([2]; dose 3–5 mg/kg)	Estrogen antagonism (% inhibition of estradiol) Given with estradiol ([2]; dose 10–50 mg/kg)	Uterotropic effect (% of estradiol) Given without estradiol ([2]; dose 10–50 mg/kg)	Cholesterol level (mmol/1) in serum ([3]; 3 mg/kg, 4 weeks dosing) [mmol/1]	Effect on ovariectomy-induced increase of serum cholesterol level (in words) ([3]; OVX rats, 4 weeks dosing)	Effect on cholesterol (in words) [3]	Uterine size [4] [g]	Maximal load (N) of femoral neck [5]	Ash weight (mg) of tibial epiphyses [6]	Cytotoxic action (in words) [1, 9]	Cholesterol level (mmol/1) in serum ([3]; 3 µg/kg, 4 weeks dosing) [mmol/1]
CN(C)CCOc1ccc(/C(=C(/CCCl)c2ccccc2)c2ccc(Cl)cc2)cc1 [No. 3, (E)-(2-{4-[4-Chloro-1-(4-chlorophenyl)-2-phenylbut-1-enyl]phenoxy}-ethyl)dimethylamine]	1	1	94	100	kill MCF-7 cells (human breast cancer cells) effectively	weak hormonal activity	weak estrogenic and no antiestrogenic action	65 % inhibition of estradiol	44 % of estradiol	38 % inhibition of estradiol	54 % of estradiol	3.1 ± 0.4	can prevent this increase even at very low dose and decrease the level below the sham operated level	decrease cholesterol	0.140 ± 0.006	92.5±11.1* N	36.0±3.4* mg	–	–
CN(C)CCOc1cccc(/C(=C(/CCCl)c2ccccc2)c2ccccc2)c1 [No. 33, (Z)-{2-[3-(4-Chloro-1,2-diphenylbut-1-enyl)phenoxy]ethyl}dimethylamine]	58	–	80	0	–	–	–	–	–	–	–	–	–	decrease cholesterol	–	–	–	weak	–
O=C(c1ccc(OCCN2CCCCC2)cc1)c1c(-c2ccc(O)cc2)sc2cc(O)ccc12 [Raloxifene, reference compound]	–	–	–	–	–	–	–	90 % inhibition of estradiol	11 % of estradiol	92 % inhibition of estradiol	13 % of estradiol	–	–	–	0.141 ± 0.021	84.2 ± 18.4* N	34.9 ± 3.5 mg	–	–
CN(C)CCOc1ccc(/C(=C(/CCCl)c2ccccc2)c2ccccc2)cc1 [Toremifene, 4-chloro-1,2-diphenyl-1-[4-[2-(N,N-dimethylamino)ethoxy]phenyl]-1-butene, Z-isomer, reference compound]	44	37	100	100	–	–	–	45 % inhibition of estradiol	26 % of estradiol	58 % inhibition of estradiol	44 % of estradiol	–	–	–	–	–	–	–	–
C[C@]12CC[C@@H]3c4ccc(O)cc4CC[C@H]3[C@@H]1CC[C@@H]2O [estradiol, reference compound]	–	–	–	–	–	–	–	–	–	–	–	–	–	–	–	–	–	–	4.0 ± 0.4
